US7572818B2, “2-pyridylethylbenzamide derivative” (Bayer Cropscience S.A., priority 2002, dated 2009)

Key:
Septoria tritici = assay: In vivo test of activity on Septoria tritici (wheat septoria disease); conditions: 500 g/ha, preventive spray 24 h before inoculation
Description: In Vivo Test of Activity on Septoria tritici (Wheat Septoria Disease
(§1) An aqueous solution of the active material to be tested is prepared at a concentration of 2 g/l by grinding in solution 1 or solution 2:
(§2) • Water • Tween 80 diluted to 10% in water: 5 μl/mg of active material • Clay in a sufficient amount for active material+clay to equal 100 mg; Solution 2
(§3) Concentrated solution containing surfactants and adjuvants conventionally used: 200 μl/mg of active material.
(§4) The aqueous solution is diluted with water so as to obtain the desired concentration.
Wheat plants of the Scipion variety are sown in a 50/50 pozzolan/peat substrate and maintained at 12° C. The treatment is carried out at the 1-leaf stage (10 cm) by spraying the aqueous suspension. The untreated control plants are sprayed with water.
24 hours after treatment, the plants are inoculated by spraying a solution of Septoria tritici spores (500 000 spores/ml) from a 7-day culture.
The wheat plantlets are then maintained at 18-20° C. in a humid atmosphere for 72 hours, and then at 90% relative humidity. The effectiveness of the products is evaluated relative to the control plants, 21 to 28 days after the contamination.
(§5) The effectiveness of the molecules is estimated, at 500 g/ha, 250 g/ha or 330 ppm, by the percentage of control relative to untreated plants. Under these conditions, good effectiveness is defined as more than 80% effectiveness. Average effectiveness is defined as an effectiveness between 50 and 80%. Poor effectiveness is defined as an effectiveness between 10 and 50% and zero effectiveness is defined as less than 10% effectiveness.

Alternaria brassicae = assay: In vivo test of activity on Alternaria brassicae (crucifer black spot) on radish; conditions: preventive spray 24 h before inoculation
Botrytis cinerea = assay: In vivo test of activity on Botrytis cinerea on cucumber; conditions: preventive spray 24 h before inoculation
Description: In Vivo Test of Activity on Botrytis cinerea on Cucumber
as §1, §2, §3, §4
Cucumbers of the Marketer variety are sown in a 50/50 pozzolan/peat substrate and maintained at 18-22° C. The treatment is carried out by spraying the aqueous suspension. The untreated control plants are sprayed with water.
24 hours after treatment, the plants are inoculated by spraying a solution of Botrytis cinerea spores (150 000 spores/ml) originating from a 15-day culture.
The cucumber plants are then maintained at 11-15° C. in a humid atmosphere. The effectiveness of the products is evaluated relative to the control plants after seven to eight days of incubation.
as §5

Pyrenophora teres = assay: In vivo test of activity on Pyrenophora teres (barley net blotch); conditions: preventive spray 24 h before inoculation
Description: In Vivo Test of Activity on Pyrenophora teres (Barley Net Blotch)
as §1, §2, §3, §4
Barley plants of the Express variety are sown in a 50/50 pozzolan/peat substrate and maintained at 12° C. The treatment is carried out at the 1-leaf stage (10 cm) by spraying the aqueous suspension. The untreated control plants are sprayed with water.
24 hours after treatment, the plants are inoculated by spraying a solution of Pyrenophora teres spores (10 000 spores/ml) originating from a 10-day culture.
The barley plants are then maintained at 18° C. in a humid atmosphere. The effectiveness of the products is evaluated relative to the control plants after eight to fifteen days of incubation.
as §5

Measured: effectiveness (percentage of control relative to untreated plants)

COc1ccc(C(=O)NCCc2ncc(C(F)(F)F)cc2Cl)cc1 [Compound A-16]
good to average: Septoria tritici

CCc1ccc(C(=O)NCCc2ncc(C(F)(F)F)cc2Cl)cc1 [Compound A-21]
good to average: Septoria tritici

O=C(NCCc1ncc(C(F)(F)F)cc1Cl)c1ccccc1Cl [Compound A-2]
good to average: Alternaria brassicae; 500 g/ha | Botrytis cinerea; 500 g/ha | Pyrenophora teres; 500 g/ha | Septoria tritici

COc1ccccc1C(=O)NCCc1ncc(C(F)(F)F)cc1Cl [Compound A-7]
good to average: Alternaria brassicae; 500 g/ha | Botrytis cinerea; 500 g/ha | Pyrenophora teres; 500 g/ha | Septoria tritici

O=C(NCCc1ncc(C(F)(F)F)cc1Cl)c1ccc(Cl)cc1Cl [Compound A-6]
good to average: Alternaria brassicae; 500 g/ha | Pyrenophora teres; 500 g/ha | Septoria tritici

O=C(NCCc1ncc(C(F)(F)F)cc1Cl)c1c(F)cccc1F [Compound A-25]
good to average: Alternaria brassicae; 500 g/ha | Botrytis cinerea; 500 g/ha | Pyrenophora teres; 500 g/ha | Septoria tritici

O=C(NCCc1ncc(C(F)(F)F)cc1Cl)c1ccc(F)cc1F [Compound A-5]
good to average: Pyrenophora teres; 500 g/ha | Septoria tritici

O=C(NCCc1ncc(C(F)(F)F)cc1Cl)c1ccc(F)cc1C(F)(F)F [Compound A-73]
good to average: Alternaria brassicae; 250 g/ha | Alternaria brassicae; 330 ppm | Botrytis cinerea; 250 g/ha | Botrytis cinerea; 330 ppm | Pyrenophora teres; 250 g/ha | Pyrenophora teres; 330 ppm

O=C(NCCc1ncc(C(F)(F)F)cc1Cl)c1ccccc1F [Compound A-4]
good to average: Alternaria brassicae; 500 g/ha | Pyrenophora teres; 500 g/ha | Septoria tritici

O=C(NCCc1ncc(C(F)(F)F)cc1Cl)c1ccccc1C(F)(F)F [Compound A-20]
good to average: Alternaria brassicae; 250 g/ha | Alternaria brassicae; 330 ppm | Alternaria brassicae; 500 g/ha | Botrytis cinerea; 250 g/ha | Botrytis cinerea; 330 ppm | Botrytis cinerea; 500 g/ha | Pyrenophora teres; 250 g/ha | Pyrenophora teres; 330 ppm | Pyrenophora teres; 500 g/ha | Septoria tritici

O=C(NCCc1ncc(C(F)(F)F)cc1Cl)c1ccccc1OC(F)F [Compound A-187]
good to average: Alternaria brassicae; 330 ppm | Botrytis cinerea; 330 ppm | Pyrenophora teres; 330 ppm

CCCCc1ccc(C(=O)NCCc2ncc(C(F)(F)F)cc2Cl)cc1 [Compound A-23]
good to average: Septoria tritici

CCCc1ccc(C(=O)NCCc2ncc(C(F)(F)F)cc2Cl)cc1 [Compound A-22]
good to average: Septoria tritici
